Source: ChEMBL document CHEMBL1201862, “PubChem BioAssay data set” (2004)
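Assay format: 96-well plates, 48-hour exposure. GI50 = concentration required for 50% inhibition of growth.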 Calls of active or inactive are those of the source. No stated cut-off is given here; in the data, active = GI50 up to about 1.1 µM and inactive = higher.

Columns and labels:
Assay in all cases: NCI tumour cell line growth inhibition, 48 h
786-0 = system: 786-0
A498 = system: A498
A549 = system: A549
ACHN = system: ACHN
CCRF-CEM = system: CCRF-CEM
COLO 205 = system: COLO 205
DU-145 = system: DU-145
EKVX = system: EKVX
HCT-116 = system: HCT-116
HCT-15 = system: HCT-15
Hs-578T = system: Hs-578T
IGROV-1 = system: IGROV-1
M14 = system: M14
MDA-MB-231 = system: MDA-MB-231
MDA-MB-435 = system: MDA-MB-435
MDA-N = system: MDA-N
MOLT-4 = system: MOLT-4
NCI-H23 = system: NCI-H23
NCI-H460 = system: NCI-H460
NCI/ADR-RES = system: NCI/ADR-RES
OVCAR-3 = system: OVCAR-3
OVCAR-4 = system: OVCAR-4
OVCAR-5 = system: OVCAR-5
PC-3 = system: PC-3
SF-268 = system: SF-268
SK-MEL-5 = system: SK-MEL-5
SK-OV-3 = system: SK-OV-3
SNB-19 = system: SNB-19
SR = system: SR
SW-620 = system: SW-620
T47D = system: T47D
TK-10 = system: TK-10
U-251 = system: U-251
UACC-257 = system: UACC-257
UACC-62 = system: UACC-62
UO-31 = system: UO-31
BT-549 = system: BT-549
HCC 2998 = system: HCC 2998
HL-60 = system: HL-60
HOP-62 = system: HOP-62
HOP-92 = system: HOP-92
HT-29 = system: HT-29
K562 = system: K562
KM12 = system: KM12
LOX IMVI = system: LOX IMVI
MCF7 = system: MCF7
NCI-H522 = system: NCI-H522
OVCAR-8 = system: OVCAR-8
SF-295 = system: SF-295
SF-539 = system: SF-539
SK-MEL-28 = system: SK-MEL-28
SN12C = system: SN12C
SNB-75 = system: SNB-75

SMILES: CC(=O)OCC(OC(C)=O)C(OC(C)=O)C(/C=N/N(C(C)=O)S(=O)(=O)c1ccc(/C=C2\NC(=O)NC2=O)cc1)OC(C)=O (stereo unspecified)
- GI50 (786-0): > 100 µM (inactive)
- GI50 (A498): > 100 µM (inactive)
- GI50 (A549): > 100 µM (inactive)
- GI50 (ACHN): > 100 µM (inactive)
- GI50 (CCRF-CEM): 50.6 µM (inactive)
- GI50 (COLO 205): > 100 µM (inactive)
- GI50 (DU-145): > 100 µM (inactive)
- GI50 (EKVX): > 100 µM (inactive)
- GI50 (HCT-116): > 100 µM (inactive)
- GI50 (HCT-15): > 100 µM
- GI50 (Hs-578T): > 100 µM (inactive)
- GI50 (IGROV-1): > 100 µM (inactive)
- GI50 (M14): > 100 µM (inactive)
- GI50 (MDA-MB-231): > 100 µM (inactive)
- GI50 (MDA-MB-435): > 100 µM (inactive)
- GI50 (MDA-N): > 100 µM (inactive)
- GI50 (MOLT-4): > 100 µM (inactive)
- GI50 (NCI-H23): > 100 µM (inactive)
- GI50 (NCI-H460): > 100 µM (inactive)
- GI50 (NCI/ADR-RES): > 100 µM (inactive)
- GI50 (OVCAR-3): > 100 µM (inactive)
- GI50 (OVCAR-4): > 100 µM (inactive)
- GI50 (OVCAR-5): > 100 µM (inactive)
- GI50 (PC-3): > 100 µM (inactive)
- GI50 (SF-268): > 100 µM (inactive)
- GI50 (SK-MEL-5): > 100 µM (inactive)
- GI50 (SK-OV-3): > 100 µM (inactive)
- GI50 (SNB-19): > 100 µM (inactive)
- GI50 (SR): > 100 µM (inactive)
- GI50 (SW-620): > 100 µM (inactive)
- GI50 (T47D): > 100 µM (inactive)
- GI50 (TK-10): > 100 µM (inactive)
- GI50 (U-251): > 100 µM (inactive)
- GI50 (UACC-257): > 100 µM (inactive)
- GI50 (UACC-62): > 100 µM (inactive)
- GI50 (UO-31): > 100 µM (inactive)

SMILES: Cc1cccc2c1Oc1cc(Cl)ccc1C2NC(=O)CCN1CCN(CCO)CC1 (stereo unspecified)
- GI50 (786-0): 13.6 µM (inactive)
- GI50 (A549): 11.5 µM (inactive)
- GI50 (BT-549): 15.1 µM (inactive)
- GI50 (CCRF-CEM): 17.7 µM (inactive)
- GI50 (COLO 205): 17.7 µM (inactive)
- GI50 (DU-145): 27.2 µM (inactive)
- GI50 (EKVX): 20.8 µM (inactive)
- GI50 (HCC 2998): 28.6 µM (inactive)
- GI50 (HCT-116): 18.6 µM (inactive)
- GI50 (HCT-15): 18.4 µM
- GI50 (HL-60): 9.46 µM (inactive)
- GI50 (HOP-62): 17.2 µM (inactive)
- GI50 (HOP-92): 10.7 µM (inactive)
- GI50 (HT-29): 15 µM (inactive)
- GI50 (IGROV-1): 22.1 µM (inactive)
- GI50 (K562): 18.2 µM (inactive)
- GI50 (KM12): 3.55 µM (inactive)
- GI50 (LOX IMVI): 2.75 µM (inactive)
- GI50 (M14): 15.5 µM (inactive)
- GI50 (MCF7): 15.2 µM (inactive)
- GI50 (MDA-MB-231): 3.69 µM (inactive)
- GI50 (MDA-MB-435): 14 µM (inactive)
- GI50 (MDA-N): 4.25 µM (inactive)
- GI50 (MOLT-4): 14.4 µM (inactive)
- GI50 (NCI-H23): 23.1 µM (inactive)
- GI50 (NCI-H460): 19.1 µM (inactive)
- GI50 (NCI-H522): 11.1 µM (inactive)
- GI50 (NCI/ADR-RES): 15.8 µM (inactive)
- GI50 (OVCAR-3): 17.7 µM (inactive)
- GI50 (OVCAR-4): 16 µM (inactive)
- GI50 (OVCAR-5): 21.1 µM (inactive)
- GI50 (OVCAR-8): 13.4 µM (inactive)
- GI50 (PC-3): 14.5 µM (inactive)
- GI50 (SF-268): 23.3 µM (inactive)
- GI50 (SF-295): 18.3 µM (inactive)
- GI50 (SF-539): 13.1 µM (inactive)
- GI50 (SK-MEL-28): 3.13 µM (inactive)
- GI50 (SK-MEL-5): 14 µM (inactive)
- GI50 (SK-OV-3): 25.9 µM (inactive)
- GI50 (SN12C): 15 µM (inactive)
- GI50 (SNB-19): 22 µM (inactive)
- GI50 (SNB-75): 4.61 µM (inactive)
- GI50 (SR): 21.8 µM (inactive)
- GI50 (SW-620): 18.3 µM (inactive)
- GI50 (T47D): 17.4 µM (inactive)
- GI50 (TK-10): > 10 µM (inactive)
- GI50 (U-251): 15.1 µM (inactive)
- GI50 (UACC-257): 16.6 µM (inactive)
- GI50 (UACC-62): 5.66 µM (inactive)
- GI50 (UO-31): 12.8 µM (inactive)
